# Measured values taken from US20260091050A1, “ADVANTAGEOUS ANTI-HCV COMBINATION THERAPY” (Atea Pharmaceuticals, Inc., priority 2021, published 2026).
# Assays:
# [1] = biological target: human mitochondrial RNA-dependent RNA polymerase (POLRMT) (Homo sapiens, UniProt O00411); assay: Incorporation of nucleotide analog triphosphates by human mitochondrial RNA polymerase; type: biochemical
# Protocol: The incorporation of these analogs by human mitochondrial RNA-dependent RNA polymerase (POLRMT) were determined according to Arnold et al. (Sensitivity of Mitochondrial Transcription and Resistance of RNA Polymerase II Dependent Nuclear Transcription to Antiviral Ribonucleotides. PLoS Pathog., 2012, 8, e1003030).
# [2] = Storage stability of Compound 1 forms and amorphous salts at 25° C./60% RH for 14 days (HPLC, observation); conditions: for Stability on storage: 14 days (2 weeks) at 25° C./60% RH
# Protocol: This initial characterization was followed by storage at 25° C./60% relative humidity (RH) for 14 days with analysis by HPLC and XRPD after 7 and 14 days. FIG. 4A is the XRPD after 14 days at 25° C./60% (RH).
# The samples were then frozen with the solvent removed by lyophilization.
# The samples were then subjected to storage at 25° C./60% relative humidity (RH) for 14 days with analysis by HPLC and XRPD after 7 (FIG. 4B) and 14 days (FIG. 5A).
# [3] = incorporation by human mitochondrial RNA polymerase
# Sequence of human mitochondrial RNA-dependent RNA polymerase (POLRMT) (O00411 42-1230): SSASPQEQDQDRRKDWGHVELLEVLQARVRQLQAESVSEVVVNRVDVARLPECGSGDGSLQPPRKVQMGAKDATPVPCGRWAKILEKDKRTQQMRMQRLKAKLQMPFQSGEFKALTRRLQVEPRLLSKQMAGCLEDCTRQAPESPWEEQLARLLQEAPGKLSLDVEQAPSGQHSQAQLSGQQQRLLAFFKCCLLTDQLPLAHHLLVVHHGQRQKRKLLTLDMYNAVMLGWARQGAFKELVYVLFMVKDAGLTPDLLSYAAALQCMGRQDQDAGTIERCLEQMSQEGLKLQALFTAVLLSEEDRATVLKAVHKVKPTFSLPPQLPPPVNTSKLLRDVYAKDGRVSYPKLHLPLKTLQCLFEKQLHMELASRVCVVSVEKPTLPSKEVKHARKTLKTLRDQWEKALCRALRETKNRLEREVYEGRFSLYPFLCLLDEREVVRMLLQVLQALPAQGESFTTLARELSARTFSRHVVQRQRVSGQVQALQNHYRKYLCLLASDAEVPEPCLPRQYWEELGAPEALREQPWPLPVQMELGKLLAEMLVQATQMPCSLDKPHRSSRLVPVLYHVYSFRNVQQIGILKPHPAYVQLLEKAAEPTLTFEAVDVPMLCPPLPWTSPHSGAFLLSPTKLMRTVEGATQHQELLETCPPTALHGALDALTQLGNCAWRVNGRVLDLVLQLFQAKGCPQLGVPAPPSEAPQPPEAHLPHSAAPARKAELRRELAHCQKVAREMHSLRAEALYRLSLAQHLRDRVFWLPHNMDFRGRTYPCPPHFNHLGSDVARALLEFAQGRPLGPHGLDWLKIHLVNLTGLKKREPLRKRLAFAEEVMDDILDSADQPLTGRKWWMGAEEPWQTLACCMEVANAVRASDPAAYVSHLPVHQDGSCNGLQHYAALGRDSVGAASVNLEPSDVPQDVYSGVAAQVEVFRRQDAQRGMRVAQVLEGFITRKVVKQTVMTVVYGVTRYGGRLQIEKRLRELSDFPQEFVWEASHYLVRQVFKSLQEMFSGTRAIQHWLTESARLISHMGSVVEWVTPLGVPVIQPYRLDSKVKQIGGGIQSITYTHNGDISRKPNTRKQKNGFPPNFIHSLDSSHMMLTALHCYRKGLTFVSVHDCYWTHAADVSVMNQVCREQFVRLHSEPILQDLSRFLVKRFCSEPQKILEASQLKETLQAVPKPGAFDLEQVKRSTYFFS
Structure (SMILES),"Kpol [1, 3] [s⁻¹]",HPLC ([2]; 0 days at 25° C./60% RH),Observation ([2]; 0 days at 25° C./60% RH),HPLC ([2]; 7 days at 25° C./60% RH),Observation ([2]; 7 days at 25° C./60% RH),Stability on storage [2],HPLC ([2]; 14 days at 25° C./60% RH),Observation ([2]; 14 days at 25° C./60% RH),incorporation by human mitochondrial RNA polymerase [1],"Relative Efficiency ([1]; (Kpol/Kd, app)analog nucleotide/(Kpol/Kd, app)natural nucleotide)","Kpol/Kd, app [1, 3] [M⁻¹ s⁻¹]","Kd ([1]; incorporation by human mitochondrial RNA polymerase, read-out: Kd, app) [µM]"
C[C@@]1(O)[C@H](O)[C@@H](COP(=O)(O)OP(=O)(O)OP(=O)(O)O)O[C@H]1n1cnc2c(=O)[nH]c(N)nc21 [2′-C-methyl GTP],0.051,,,,,,,,,,,
C[C@@]1(F)[C@H](O)C(CO[P@@](=O)(O)OP(=O)(O)OP(=O)(O)O)O[C@H]1n1ccc(=O)[nH]c1=O (stereo partly shown) [2′-deoxy-2′-F-2′-C-methyl UTP],0.00034,,,,,,,,,,,
"CNc1nc(N)nc2c1ncn2[C@@H]1O[C@H](CO[P@@](=O)(N[C@@H](C)C(=O)OC(C)C)Oc2ccccc2)[C@@H](O)[C@@]1(C)F [Sample 1-1, isopropyl((S)-(((2R,3R,4R,5R)-5-(2-amino-6-(methylamino)-9H-purin-9-yl)-4-fluoro-3-hydroxy-4-methyltetrahydrofuran-2-yl)methoxy)(phenoxy)phosphoryl)-L-alaninate]",,98.6,White solid,98.7,White solid,stable,98.5,White solid,,,,
"CNc1nc(N)nc2c1ncn2[C@@H]1O[C@H](CO[P@@](=O)(N[C@@H](C)C(=O)OC(C)C)Oc2ccccc2)[C@@H](O)[C@@]1(C)F [Sample 1-2, isopropyl((S)-(((2R,3R,4R,5R)-5-(2-amino-6-(methylamino)-9H-purin-9-yl)-4-fluoro-3-hydroxy-4-methyltetrahydrofuran-2-yl)methoxy)(phenoxy)phosphoryl)-L-alaninate]",,99.1,White solid,99.2,White solid,stable,99.0,White solid,,,,
CNc1nc(N)nc2c1ncn2[C@@H]1O[C@H](CO[P@@](=O)(N[C@@H](C)C(=O)OC(C)C)Oc2ccccc2)[C@@H](O)[C@@]1(C)F [Sample 1-3],,99.7,White solid,99.6,White solid,,99.4,White solid,,,,
CNc1nc(N)nc2c1ncn2[C@@H]1O[C@H](CO[P@@](=O)(N[C@@H](C)C(=O)OC(C)C)Oc2ccccc2)[C@@H](O)[C@@]1(C)F [Sample 1-9],,98.7,White solid,98.1,White solid,physically and chemically stable,96.4,White solid,,,,
C[C@@]1(F)[C@H](O)[C@@H](COP(=O)(O)OP(=O)(O)OP(=O)(O)O)O[C@H]1n1cnc2c(=O)[nH]c(N)nc21 [metabolite 1-6],0.0017,,,,,,,,poorly incorporated,2.2 × 10^−6,8.3,204
